This passage reports TGI results from PubChem BioAssay (NCI).

Common to all, as to assay: NCI-60 cell line screen, 48 h
Test [1] concerns BT-549 breast.
The subject of test [2] is EKVX NSCLC.
Test [3] concerns HCC-2998 colon.
The subject of test [4] is HCT-116 colon.
The subject of test [5] is HCT-15 colon.
For test [6], the system named is K-562 leukemia.
The subject of test [7] is LOX IMVI melanoma.
The subject of test [8] is M14 melanoma.
The test system of test [9] is MCF7 breast.
Test [10] has as its system OVCAR-4 ovarian.
The test system of test [11] is UACC-62 melanoma.

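48-hour exposure; five concentrations; linearly interpolated endpoints. Definition used: TGI = concentration required for complete inhibition of growth.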

For `FC(F)(F)c1ccc2c(c1)nc(Cc1ccccc1)n2C[C@@H]1CCCN2CCCCC12` (stereo not given in full), the TGI in test [1] is 28.7 µM; in test [2], 28.9 µM; in test [3], 10.6 µM; in [4] it was 27.9 µM; in [5] it was 30.6 µM; in test [6], above 64.8 µM. Further, the TGI in test [7] was 30.3 µM; in test [8], 23 µM; in [9], 28.6 µM; in test [10] it was 31.5 µM; in [11], 30.7 µM.

Consider `COC(=O)c1ccc2n1C1CC3CC(CC2C3)C1`, for which the TGI in [1], in [2], in test [3], in test [4], in [5] and in [6] was above 100 µM in each case. The TGI in [7], in test [8], in test [9], in [10] and in [11] was above 100 µM in each case.

Turning to `NC(=O)c1n[nH]n(-c2ccccc2)c1=O`, the TGI in test [1], in test [2], in test [3], in test [4], in [5] and in test [6] was above 100 µM each time. For the same compound, the TGI in [7], in test [8], in test [9] and in [11] was above 100 µM each time.

In the case of `COc1cccc(NCC(=O)Nn2c(-c3ccccc3)nc3ccccc3c2=O)c1`, the TGI in test [1], in [2], in test [3], in test [4], in test [5] and in test [6] was above 100 µM throughout. Besides, the TGI in test [7], in test [8], in test [9], in [10] and in test [11] was above 100 µM in each case.

With `Cc1cccc(-c2cc(=O)c3ccc(C)nc3[nH]2)c1`, the TGI in test [1] was above 100 µM; in test [2], above 100 µM; in test [3], 27.4 µM; in [4] it was above 20.4 µM; in test [5] it was above 35.2 µM; in test [6], above 100 µM. For the same compound, the TGI in [7], in test [8], in [9], in [10] and in test [11] was above 100 µM in each case.

In the case of `CCN1/C(=C/c2ccc3ccccc3[n+]2CC)C=Cc2ccccc21`, the TGI in [1] was 24 µM; in test [2], 16.7 µM; in [3], 13.4 µM; in test [4], 11.7 µM; in test [5] it was 34.1 µM; in test [6], above 100 µM. Besides, the TGI came out at 4.86 µM in test [7]; 12.8 µM in test [8]; 13.1 µM in test [9]; 19.8 µM in [10]; 9.22 µM in test [11].

Take `N[C@@H]1c2c(Br)sc(Br)c2[C@H](O)[C@@H]1O`: the TGI in test [1], in test [2], in [3], in test [4], in test [5] and in [6] was above 100 µM in each case. The TGI in test [7], in test [8], in [9], in [10] and in [11] was above 100 µM each time.

With `COc1ccc(-c2cc(-c3ccc(Nc4ccnc5cc(C(F)(F)F)ccc45)cc3)[nH]c(=O)c2C#N)c2ccccc12`, the TGI in test [1], in test [2], in test [3], in test [4], in test [5] and in test [6] was above 100 µM throughout. The TGI in test [7] was above 49.7 µM; in test [8], above 70.7 µM; in test [9], above 100 µM; in test [10], above 100 µM; in [11], above 100 µM.

As for `COc1ccc(C(=O)N2CCN(c3ccc4c(c3)OCC(=O)N4)CC2)cc1`, the TGI in [1], in [2], in test [3], in [4], in [5] and in [7] was above 100 µM in each case. Also, the TGI in [8], in test [9], in test [10] and in [11] was above 100 µM throughout.

As for `O=C1Oc2ccccc2C(=O)/C1=C/N1C(=O)/C(=C/c2ccc([N+](=O)[O-])cc2)SC1=S`, the TGI is 31.2 µM in test [1]; above 100 µM in test [2]; 42.2 µM in test [3]; 50.2 µM in test [4]; 61.7 µM in test [5]; 69.8 µM in [6]. Further, the TGI in test [7] was above 100 µM; in [8], 65.6 µM; in test [9], above 100 µM; in test [10], above 100 µM; in test [11], above 100 µM.

Consider `CC1=C/C(=N/N2C(=O)/C(=C/c3ccc(Cl)cc3)N=C2c2ccccc2)CC(C)(C)C1`, for which the TGI in [1], in test [2], in test [3], in test [4], in [5] and in test [6] was above 100 µM in each case. Further, the TGI in [7], in [8], in test [9], in test [10] and in [11] was above 100 µM each time.

`C=CCN1C(=O)/C(=C/c2ccc(C)cc2)N=C1SC/C=C/C`: the TGI in test [1] is above 100 µM; in test [2], above 100 µM; in test [3] it was above 100 µM; in test [4], above 100 µM; in test [5] it was above 100 µM; in test [6] it was 89.4 µM. Further, the TGI is 44.5 µM in test [7]; above 100 µM in test [8]; above 100 µM in test [9]; above 100 µM in test [10]; above 100 µM in test [11].

Regarding `CC(SC(=S)N1CCCCC1)C(=O)Nc1nnc(-c2ccc(Cl)cc2)o1` (stereo not given), the TGI in test [1] is above 100 µM; in test [3] it was above 100 µM; in test [4] it was 40.3 µM; in [5], above 100 µM; in test [6], above 100 µM; in [7], above 100 µM. In addition, the TGI in test [8] was 53.7 µM; in test [9], 76.1 µM; in test [10], above 100 µM; in test [11], 75.1 µM.
